According to patent US8119628B2, “Pyrrolidine fused indolobenzadiazepine HCV NS5B inhibitors” (Bristol-Myers Squibb Company, priority 2008, dated 2012):

Legend:
HCV replicon cells = test: HCV FRET assay in HCV replicon cells; format: cell-based; settings: Hepatitis C virus
Source text: FRET Assay Preparation. To perform the HCV FRET screening assay, 96-well cell culture plates were used. The FRET peptide (Anaspec, Inc.) (Taliani et al., Anal. Biochem. 1996, 240, 60-67) contains a fluorescence donor, EDANS, near one end of the peptide and an acceptor, DABCYL, near the other end. The fluorescence of the peptide is quenched by […] resonance energy transfer (RET) between the donor and the acceptor, but as the NS3 protease cleaves the peptide the products are released from RET quenching and the fluorescence of the donor becomes apparent. The assay reagent was made as follows: 5× cell Luciferase cell culture lysis reagent from Promega (#E153A) diluted to 1× with dH2O, NaCl added to 150 mM final, the FRET peptide diluted to 20 uM final from a 2 mM stock.
To prepare plates, HCV replicon cells, with or without a Renilla luciferase reporter gene, were trypsinized and placed into each well of a 96-well plate with titrated test compounds added in columns 3 through 12; columns 1 and 2 contained a control compound (HCV protease inhibitor), and the bottom row contained cells without compound. The plates were then placed in a CO2 incubator at 37° C.
Assays. Subsequent to addition of the test compounds described above (FRET Assay Preparation), at various times the plate was removed and Alamar blue solution (Trek Diagnostics, #00-100) was added per well as a measure of cellular toxicity. After reading in a Cytoflour 4000 instrument (PE Biosystems), plates were rinsed with PBS and then used for FRET assay by the addition of 30 ul of the FRET peptide assay reagent described above (FRET Assay Preparation) per well. The plate was then placed into the Cytoflour 4000 instrument which had been set to 340 excite/490 emission, automatic mode for 20 cycles and the plate read in a kinetic mode. Typically, the signal to noise using an endpoint analysis after the reads was at least three-fold. Alternatively, after Alamar blue reading, plates were rinsed with PBS, 50 ul of DMEM (high glucose) without phenol red was added and plates were then used for luciferase assay using the Promega Dual-Glo Luciferase Assay System.
Compound analysis was determined by quantification of the relative HCV replicon inhibition and the relative cytotoxicity values. To calculate cytoxicity values, the average Alamar Blue fluorescence signals from the control wells were set as 100% non-toxic. The individual signals in each of the compound test wells were then divided by the average control signal and multiplied by 100% to determine […]. To calculate the HCV replicon inhibition values, an average background value was obtained from the two wells containing the highest amount of HCV protease inhibitor at the end of the assay period. These numbers were similar to those obtained from naïve Huh-7 cells.
The background numbers were then subtracted from the average signal obtained from the control wells and this number was used as 100% activity. The individual signals in each of the compound test wells were then divided by the averaged control values after background subtraction and multiplied by 100% to determine percent activity. EC50 values for a protease inhibitor titration were calculated as the concentration which caused a 50% reduction in FRET or luciferase activity. The two numbers generated for the compound plate, percent cytoxicity and percent activity were used to determine compounds of interest for further analysis.

HCV NS5B = target: T1, HCV NS5B (Hepatitis C virus genotype 1b, UniProt Q9WMX2); test: Modified HCV NS5B RdRp enzyme assay (preincubation protocol); format: biochemical; settings: HCV NS5B RdRp genotype 1b
T1 construct: The protein was expressed with an 18 amino acid C-terminal truncation to enhance the solubility; made in house; host or cells: E. coli BL21(DE3)
T1 sequence (Q9WMX2 2420-2992): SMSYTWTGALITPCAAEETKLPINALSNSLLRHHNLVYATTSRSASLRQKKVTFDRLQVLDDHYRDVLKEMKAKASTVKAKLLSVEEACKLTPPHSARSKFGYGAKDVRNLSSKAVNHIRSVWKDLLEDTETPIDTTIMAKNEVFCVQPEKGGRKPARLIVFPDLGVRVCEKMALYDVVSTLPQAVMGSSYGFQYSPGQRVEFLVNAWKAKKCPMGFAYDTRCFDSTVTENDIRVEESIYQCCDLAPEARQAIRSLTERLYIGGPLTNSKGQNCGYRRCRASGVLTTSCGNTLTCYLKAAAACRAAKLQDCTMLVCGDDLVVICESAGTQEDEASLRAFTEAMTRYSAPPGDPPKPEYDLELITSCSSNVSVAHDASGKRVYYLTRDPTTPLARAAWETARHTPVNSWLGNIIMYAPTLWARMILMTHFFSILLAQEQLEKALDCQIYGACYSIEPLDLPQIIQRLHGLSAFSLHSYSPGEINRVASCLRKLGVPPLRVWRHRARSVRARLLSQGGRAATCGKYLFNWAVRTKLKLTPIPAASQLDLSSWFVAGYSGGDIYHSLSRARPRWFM
Experimental: HCV NS5B RdRp cloning, expression, and purification. The cDNA encoding the NS5B protein of HCV, genotype 1b, was cloned into the pET21a expression vector. The protein was expressed with an 18 amino acid C-terminal truncation to enhance the solubility. The E. coli competent cell line BL21(DE3) was used for expression of the protein. Cultures were grown at 37° C. for ˜4 hours until the cultures reached an optical density of 2.0 at 600 nm. The cultures were cooled to 20° C. and induced with 1 mM IPTG. Fresh ampicillin was added to a final concentration of 50 μg/ml and the cells were grown overnight at 20° C.
Cell pellets (3 L) were lysed for purification to yield 15-24 […] of purified NS5B. The lysis buffer consisted of 20 mM Tris-HCl, pH 7.4, 500 mM NaCl, 0.5% triton X-100, 1 mM DTT, 1 mM EDTA, 20% glycerol, 0.5 mg/ml lysozyme, 10 mM MgCl2, 15 ug/ml deoxyribonuclease I, and Complete TM protease inhibitor tablets (Roche). After addition of the lysis buffer, frozen cell pellets were resuspended using a tissue homogenizer. To reduce the viscosity of the sample, aliquots of the lysate were sonicated on ice using a microtip attached to a Branson sonicator. The sonicated lysate was centrifuged at 100,000×g for 1 hr at 4° C. and filtered through a 0.2 μm filter unit (Corning).
The protein was purified using three sequential chromatography steps: Heparin sepharose CL-6B, polyU sepharose 4B, and Hitrap SP sepharose (Pharmacia). The chromatography buffers were identical to the lysis buffer but contained no lysozyme, deoxyribonuclease I, MgCl2 or protease inhibitor and the NaCl concentration of the buffer was adjusted according to the requirements for charging the protein onto the column. Each column was eluted with a NaCl gradient which varied in length from 5-50 column volumes depending on the column type. After the final chromatography step, the resulting purity of the enzyme is >90% based on SDS-PAGE analysis. The enzyme was aliquoted and stored at −80° C.
Standard HCV NS5B RdRp enzyme assay. HCV RdRp genotype 1b assays were run in a final volume of 60 μl in 96 well plates (Costar 3912). The assay buffer is composed of 20 mM Hepes, pH 7.5, 2.5 mM KCl, 2.5 mM MgCl2, 1 mM DTT, 1.6 U RNAse inhibitor (Promega N2515), 0.1 mg/ml BSA (Promega R3961), and 2% glycerol. All compounds were serially diluted (3-fold) in DMSO and diluted further in water such that the final concentration of DMSO in the assay was 2%. HCV RdRp genotype 1b enzyme was used at a final concentration of 28 nM. A polyA template was used at 6 nM, and a biotinylated oligo-dT12 primer was used at 180 nM final concentration. Template was obtained commercially (Amersham 27-4110). Biotinylated primer was prepared by Sigma Genosys. 3H-UTP was used at 0.6 μCi (0.29 μM total UTP). Reactions were initiated by the addition of enzyme, incubated at 30° C. for 60 min, and stopped by adding 25 μl of 50 mM EDTA containing SPA beads (4 μg/μl, Amersham RPNQ 0007). Plates were read on a Packard Top Count NXT after >1 hr incubation at room temperature.
Modified HCV NS5B RdRp enzyme assay. A modified enzyme assay was performed essentially as described for the standard enzyme assay except for the following: The biotinylated oligo dTl2 primer was precaptured on streptavidin-coated SPA beads by mixing primer and beads in assay buffer and incubating at room temperature for one hour. Unbound primer was removed after centrifugation. The primer-bound beads were resuspended in 20 mM Hepes buffer, pH 7.5 and used in the assay at final concentrations of 20 nM primer and […] beads. Order of addition in the assay: enzyme (14 nM) was added to diluted compound followed by the addition of a mixture of template (0.2 nM), 3H-UTP (0.6 μCi, 0.29 μM), and primer-bound beads, to initiate the reaction; concentrations given are final. Reactions were allowed to proceed for 4 hours at 30° C.
IC50 values for compounds were determined using seven different. […]

| Structure (SMILES) | EC50 (HCV replicon cells; reported as class) | IC50 (HCV NS5B; reported as class) | EC50 (HCV replicon cells) | IC50 (HCV NS5B) |
| --- | --- | --- | --- | --- |
| COc1ccc2c(c1)C1CN(C(=O)N(C)C)CC1(C(=O)N1C[C@@H](C)O[C@@H](C)C1)Cn1c-2c(C2CCCCC2)c2ccc(C(=O)NS(=O)(=O)N(C)C)cc21 (mixture of isomers) [Example 11, rac-(3aR,14bR)-10-cyclohexyl-3a-(((2S,6R)-2,6-dimethyl-4-morpholinyl)carbonyl)-N^7-(dimethylsulfamoyl)-13-methoxy-N^2,N^2-dimethyl-1,3a,4,14b-tetrahydroindolo[2,1-c]pyrrolo[3,4-d][2]benzazepine-2,7(3H)-dicarboxamide] | 0.02 to 0.5 µM | 0.02 to 0.5 µM | – | – |
| COc1ccc2c(c1)C1CN(C(C)CN(C)C)CC1(C(=O)N1C[C@@H](C)O[C@@H](C)C1)Cn1c-2c(C2CCCCC2)c2ccc(C(=O)NS(=O)(=O)N(C)C)cc21 (mixture of isomers) [Example 12, rac-(3aR,14bR)-10-cyclohexyl-2-(2-(dimethylamino)-1-methylethyl)-3a-(((2S,6R)-2,6-dimethyl-4-morpholinyl)carbonyl)-N-(dimethylsulfamoyl)-13-methoxy-1,2,3,3a,4,14b-hexahydroindolo[2,1-a]pyrrolo[3,4-d][2]benzazepine-7-carboxamide] | 0.02 to 0.5 µM | 0.02 to 0.5 µM | – | – |
| COc1ccc2c(c1)C1CN(C(=O)CN(C)C)CC1(C(=O)N1C[C@@H](C)O[C@@H](C)C1)Cn1c-2c(C2CCCCC2)c2ccc(C(=O)NS(=O)(=O)N(C)C)cc21 (mixture of isomers) [Example 13, rac-(3aR,14bR)-10-Cyclohexyl-2-(N,N-dimethylglycyl)-3a-(((2S,6R)-2,6-dimethyl-4-morpholinyl)carbonyl)-N-(dimethylsulfamoyl)-13-methoxy-1,2,3,3a,4,14b-hexahydroindolo[2,1-a]pyrrolo[3,4-d][2]benzazepine-7-carboxamide] | 0.02 to 0.5 µM | 0.02 to 0.5 µM | – | – |
| COc1ccc2c(c1)C1CN(C(=O)CN(C)C)CC1(C(=O)N(C)C)Cn1c-2c(C2CCCCC2)c2ccc(C(=O)NS(=O)(=O)N(C)C)cc21 (racemic) [Example 14, rac-(3aR,14bR)-10-Cyclohexyl-2-(N,N-dimethylglycyl)-N^7-(dimethylsulfamoyl)-13-methoxy-N^3a,N^3a-dimethyl-1,2,3,14b-tetrahydroindolo[2,1-a]pyrrolo[3,4-d][2]benzazepine-3a,7(4H)-dicarboxamide] | – | – | 0.047 µM | 0.051 µM |
| COc1ccc2c(c1)C1CN(C(=O)C(=O)N(C)C)CC1(C(=O)N(C)C)Cn1c-2c(C2CCCCC2)c2ccc(C(=O)NS(=O)(=O)N(C)C)cc21 (racemic) [Example 15, rac-(3aR,14bR)-10-Cyclohexyl-2-((dimethylamino)(oxo)acetyl)-N^7-(dimethylsulfamoyl)-13-methoxy-N^3a,N^3a-dimethyl-1,2,3,14b-tetrahydroindolo[2,1-a]pyrrolo[3,4-d][2]benzazepine-3a,7(4H)-dicarboxamide] | 0.02 to 0.5 µM | 0.02 to 0.5 µM | – | – |
| COc1ccc2c(c1)C1CN(C(=O)c3nccn3C)CC1(C(=O)N(C)C)Cn1c-2c(C2CCCCC2)c2ccc(C(=O)NS(=O)(=O)N(C)C)cc21 (racemic) [Example 16, rac-(3aR,14bR)-10-Cyclohexyl-N^7-(dimethylsulfamoyl)-13-methoxy-N^3a,N^3a-dimethyl-2-((1-methyl-1H-imidazol-2-yl)carbonyl)-1,2,3,14b-tetrahydroindolo[2,1-a]pyrrolo[3,4-d][2]benzazepine-3a,7(4H)-dicarboxamide] | 0.02 to 0.5 µM | 0.02 to 0.5 µM | – | – |
| COc1ccc2c(c1)C1CN(C(C)CN(C)C)CC1(C(=O)N(C)C)Cn1c-2c(C2CCCCC2)c2ccc(C(=O)NS(=O)(=O)N(C)C)cc21 (racemic) [Example 17a, rac-(3aR,14bR)-10-cyclohexyl-2-(2-(dimethylamino)-1R-methylethyl)-N^7-(dimethylsulfamoyl)-13-methoxy-N^3a,N^3a-dimethyl-1,2,3,14b-tetrahydroindolo[2,1-a]pyrrolo[3,4-d][2]benzazepine-3a,7(4H)-dicarboxamide] | 0.02 to 0.5 µM | 0.02 to 0.5 µM | – | – |
